Test results as given in PMC8228365, “Degradation Products of Tryptophan in Cell Culture Media: Contribution to Color and Toxicity” (International Journal of Molecular Sciences, 2021).
Like-named read-outs stand apart in the source and are kept apart here.

Key:
[1] = Color measurement (ΔE*) of standards spiked into feed; assay type: physicochemical; conditions: theoretical 500 µM, 1% DMSO, ΔE* > 1 deemed significant
Method: (§1) Compounds were dissolved in DMSO at 50 mM and then spiked into the solutions to achieve a final compound concentration of 500µM. Some of the tested compounds formed a precipitate immediately upon spiking of the DMSO solution. As the precipitates in solution can interfere with the absorption measurement, each sample was centrifuged prior to taking absorption measurements, meaning that the final concentrations were not all at 500 µM. […] In stability experiments, eight of these nine compounds (all except 46) were present in at least one condition in the degraded water samples, and four of these nine compounds (28, 31, 38, and 46) were present in the degraded feed.
(§2) Absorbance measurements were taken in the range of 380 nm to 780 nm (20 nm steps) of 100 µL of the samples in four technical replicates (Envision, Perkin Elmer, Waltham, MA, USA). From the absorbance values, the change in color was calculated using L*a*b* and ΔE* values according to DIN 5033-3 and DIN 6174 norms. The CIE 1931 standard observer (2°) and the D65 illuminant were selected.
(§3) Chemical standards were prepared as 50 mM stocks in DMSO and then spiked into the aqueous solutions (either water or feed) to achieve a theoretical compound concentration of 500 µM (1% DMSO). The solutions were centrifuged, and the absorbance measurements of these solutions was measured and converted to ΔE* values as described above. The control condition was pure DMSO (1% v/v).

CHO cells = test: CHO cell toxicity summarised across the four CHO cell lines; assay type: cell-based, Chinese hamster; conditions: Cricetulus griseus, read-out: GI50 across all cell lines
Method: (§4) To assay the potential toxicity induced in the CHO cell culture by the Trp degradation products found in this study, a cytotoxicity assay CellTiter-Glo® Luminescent Cell Viability Assay (Cat #G7572, Promega, Madison, WI, USA) was used, following the manufacturer’s instructions. Briefly, the cells were seeded with 25,000 viable cells per cavity of a 96-well opaque white cell culture plate (Thermo Fisher, Waltham, MA, USA) in 80 µL of a pre-warmed medium. Tryptophan degradation compounds were added in triplicates to the cells, ranging from 1 mM to 46 nM. A DMSO control was added in the same concentration range as the tryptophan degradation compounds were diluted. The dose response curves were fitted with a 4PL model by GraphPad Prism v.7 (GraphPad Software, San Diego, CA, USA) after luminescence readout with an EnVision 2104 Multilabel Reader (Perkin Elmer, Waltham, MA, USA).

CHOK1 GS cells = test: CellTiter-Glo cytotoxicity assay in CHOK1 GS cell line; assay type: cell-based, Chinese hamster; conditions: Cricetulus griseus
Method: To assay the potential toxicity induced in the CHO cell culture by the Trp degradation products found in this study, a cytotoxicity assay CellTiter-Glo® Luminescent Cell Viability Assay (Cat #G7572, Promega, Madison, WI, USA) was used, following the manufacturer’s instructions. Briefly, the cells were seeded with 25,000 viable cells per cavity of a 96-well opaque white cell culture plate (Thermo Fisher, Waltham, MA, USA) in 80 µL of a pre-warmed medium. […] A DMSO control was added in the same concentration range as the tryptophan degradation compounds were diluted.

[2] = Color measurement (ΔE*) of standards spiked into water; assay type: physicochemical; conditions: theoretical 500 µM, 1% DMSO, ΔE* > 1 deemed significant
Method: as §1, §2, §3

CHOK1 cells = test: CellTiter-Glo cytotoxicity assay in CHOK1 cell line; assay type: cell-based, Chinese hamster; conditions: Cricetulus griseus
Method: as §4

CHOZN 6 cells = test: CellTiter-Glo cytotoxicity assay in CHOZN 6 cell line; assay type: cell-based, Chinese hamster; conditions: Cricetulus griseus, read-out: [GI50] CHOZN 6
Method: as §4

human cancer cell lines = test system: human cancer cell lines; set-up: method as in PMID 24930832; conditions: cited from earlier work
bacteria = test system: bacteria; set-up: method as in PMID 24930832; conditions: cited from earlier work
CHOZN 10 cells = test: CellTiter-Glo cytotoxicity assay in CHOZN 10 cell line; assay type: cell-based, Chinese hamster; conditions: Cricetulus griseus, read-out: [GI50] CHOZN 10
Method: as §4

[3] = test system: cancerous and non-cancerous human cell lines; set-up: method as in PMID 28720329, PMID 22819942, PMID 32792961; conditions: wide range of human cell lines; cited from earlier work

SMILES	Color change as measured by ΔE* in feed [1]	GI50 (CHO cells; across all four CHO cell lines) [µM]	GI50 (CHOK1 GS cells; CHO-K1, CHOK1 GS cell line, 1 mM to 46 nM, 4PL fit, read-out: [GI50] CHOK1 GS) [µM]	Color change as measured by ΔE* in water [2]	GI50 (CHOK1 cells; CHO-K1, CHOK1 cell line, 1 mM to 46 nM, 4PL fit, read-out: [GI50] CHOK1) [µM]	GI50 (CHOZN 6 cells; CHOZN 6 cell line, 1 mM to 46 nM, 4PL fit) [µM]	toxicity in human cancer cell lines (human cancer cell lines)	antibacterial activity (bacteria)	GI50 (CHOZN 10 cells; CHOZN 10 cell line, 1 mM to 46 nM, 4PL fit) [µM]	GI50 (CHO cells; CHO) [µM]	GI50 (CHOK1 GS cells; CHO-K1, read-out: [GI50] CHOK1 GS) [µM]	GI50 (CHOK1 cells; CHO-K1, read-out: [GI50] CHOK1) [µM]	GI50 (CHOZN 6 cells) [µM]	toxicity against cancerous and non-cancerous human cell lines [3]	GI50 (CHOZN 10 cells) [µM]
c1ccc2c(-c3nccc4c3[nH]c3ccccc34)c[nH]c2c1 [Compound 34, 1-(1H-Indol-3-yl)-9H-pyrido[3,4-b]indole]	significant color change	10 to 22	24	significant color change	10.6	12.3	some toxicity	most potent as an antibacterial agent	13.1	–	–	–	–	–	–
O=C1c2ccccc2-n2c1nc1ccccc1c2=O [Compound 39, Tryptanthrin]	significant color change	–	–	significant color change	–	–	–	–	–	≤ 1.1	< 0.13	0.2	1.1	low micromolar toxicity	1.05
